Experiments:
Format in all cases: in vivo
[1] = system: Polygonum convolvulus; test: Pre-emergence herbicidal action (Experimental Part 1, B); details: scored visually after about 3 weeks
Text: (§1) Seeds of monocotyledonous and dicotyledonous weed plants and crop plants were placed in plastic or organic planting pots and covered with soil. The compounds of the invention, formulated in the form of wettable powders (WP) or as emulsion concentrates (EC), were then applied onto the surface of the covering soil as aqueous suspension or emulsion with addition of 0.5% additive at a water application rate of 600 l/ha (converted). After the treatment, the pots were placed in a greenhouse and kept under good growth conditions for the test plants. After about 3 weeks, the effect of the preparations was scored visually in comparison with untreated controls as percentages. For example, 100% activity=the plants have died, 0% activity=like control plants. Tables B1 to B14 below show the effects of selected compounds of the general formula (I) according to Tables I.1 to I.116 on various harmful plants and an application rate corresponding to 1280 g/ha or 320 g/ha, which were obtained by the experimental procedure mentioned above.

[2] = system: Avena fatua; test: as above; details: scored visually after about 3 weeks
Text: as §1

[3] = system: Matricaria inodora; test: as above; details: scored visually after about 3 weeks
Text: as §1

[4] = system: Amaranthus retroflexus; test: as above; details: scored visually after about 3 weeks
Text: as §1

[5] = system: Lolium rigidum; test: as above; details: application rate 1280 g/ha, scored visually after about 3 weeks
Text: as §1

[6] = system: Setaria viridis; test: as above; details: scored visually after about 3 weeks
Text: as §1

[7] = system: Ipomoea purpurea; test: as above; details: application rate 320 g/ha, scored visually after about 3 weeks
Text: as §1

[8] = system: Alopecurus myosuroides; test: as above; details: scored visually after about 3 weeks
Text: as §1

[9] = system: Echinochloa crus-galli; test: as above; details: application rate 320 g/ha, scored visually after about 3 weeks
Text: as §1

[10] = system: Viola tricolor; test: as above; details: scored visually after about 3 weeks
Text: as §1

[11] = system: Stellaria media; test: as above; details: scored visually after about 3 weeks
Text: as §1

[12] = system: Abutilon theophrasti; test: as above; details: scored visually after about 3 weeks
Text: as §1

[13] = system: Veronica persica; test: Post-emergence herbicidal action (Experimental Part 1, A); details: about 3 weeks after treatment, 100% = plants have died, 0% = like control plants
Method: (§2) Seeds of monocotyledonous and dicotyledonous weeds and crop plants were placed in sandy loam in plastic or wood-fiber pots, covered with soil and cultivated in a greenhouse under controlled growth conditions. 2 to 3 weeks after sowing, the test plants were treated at the one-leaf stage. The compounds of the invention, formulated in the form of wettable powders (WP) or as emulsion concentrates (EC), were then sprayed onto the green parts of the plants as aqueous suspension or emulsion with addition of 0.5% additive at a water application rate of 600 l/ha (converted). After the test plants had been kept in the greenhouse under optimum growth conditions for about 3 weeks, the activity of the preparations was rated visually in comparison to untreated controls. For example, 100% activity=the plants have died, 0% activity=like control plants. Tables A1 to A14 below show the effects of selected compounds of the general formula (I) according to Tables I.1 to I.116 on various harmful plants and an application rate corresponding to 1280 g/ha or 320 g/ha, which were obtained by the experimental procedure mentioned above.

[14] = system: Polygonum convolvulus; test: as above; details: rated visually after about 3 weeks
Method: as §2

[15] = system: Matricaria inodora; test: as above; details: rated visually after about 3 weeks
Method: as §2

[16] = system: Amaranthus retroflexus; test: as above; details: about 3 weeks after treatment, 100% = plants have died, 0% = like control plants
Method: as §2

[17] = system: Setaria viridis; test: as above; details: about 3 weeks after treatment, 100% = plants have died, 0% = like control plants
Method: as §2

[18] = system: Ipomoea purpurea; test: as above; details: rated visually after about 3 weeks
Method: as §2

[19] = system: Alopecurus myosuroides; test: as above; details: application rate 320 g/ha, about 3 weeks after treatment, 100% = plants have died, 0% = like control plants
Method: as §2

[20] = system: Echinochloa crus-galli; test: as above; details: application rate 320 g/ha, about 3 weeks after treatment, 100% = plants have died, 0% = like control plants
Method: as §2

[21] = system: Viola tricolor; test: as above; details: rated visually after about 3 weeks
Method: as §2

[22] = system: Stellaria media; test: as above; details: rated visually after about 3 weeks
Method: as §2

[23] = system: Abutilon theophrasti; test: as above; details: about 3 weeks after treatment, 100% = plants have died, 0% = like control plants
Method: as §2

CCOC(=O)OC1C(C)=CC(=O)N1c1cc(C(C)(C)C)on1 (centres unmarked) [I.11-162, 5-Ethoxycarbonyloxy-4-methyl-1-(5-tert-butyl-1,2-isoxazol-3-yl)-1,5-dihydro-2H-pyrrol-2-one]
100%: Polygonum convolvulus, herbicidal activity ([1]; application rate 320 g/ha) | Matricaria inodora, herbicidal activity ([3]; application rate 320 g/ha) | Amaranthus retroflexus, herbicidal activity ([4]; application rate 320 g/ha) | Setaria viridis, herbicidal activity ([6]; application rate 320 g/ha) | Alopecurus myosuroides, herbicidal activity ([8]; application rate 320 g/ha) | Echinochloa crus-galli, herbicidal activity [9] | Viola tricolor, herbicidal activity ([10]; application rate 320 g/ha) | Stellaria media, herbicidal activity ([11]; application rate 320 g/ha) | Abutilon theophrasti, herbicidal activity ([12]; application rate 320 g/ha) | herbicidal activity on Veronica persica (visual rating vs untreated controls) ([13]; application rate 320 g/ha) | Polygonum convolvulus, herbicidal activity ([14]; application rate 320 g/ha) | Matricaria inodora, herbicidal activity ([15]; application rate 320 g/ha) | herbicidal activity on Amaranthus retroflexus (visual rating vs untreated controls) ([16]; application rate 320 g/ha) | herbicidal activity on Setaria viridis (visual rating vs untreated controls) ([17]; application rate 320 g/ha) | herbicidal activity on Alopecurus myosuroides (visual rating vs untreated controls) [19] | Viola tricolor, herbicidal activity ([21]; application rate 320 g/ha) | Stellaria media, herbicidal activity ([22]; application rate 320 g/ha) | herbicidal activity on Abutilon theophrasti (visual rating vs untreated controls) ([23]; application rate 320 g/ha)
90%: Avena fatua, herbicidal activity ([2]; application rate 320 g/ha) | Lolium rigidum, herbicidal activity [5] | Ipomoea purpurea, herbicidal activity [7] | Ipomoea purpurea, herbicidal activity ([18]; application rate 320 g/ha) | herbicidal activity on Echinochloa crus-galli (visual rating vs untreated controls) [20]

CCOC(=O)OC1C=C(C)C(=O)N1c1cc(C(F)(F)F)c(Cl)cn1 (centres unmarked) [I.12-451]
90%: Avena fatua, herbicidal activity ([2]; application rate 1280 g/ha) | Matricaria inodora, herbicidal activity ([3]; application rate 1280 g/ha) | Setaria viridis, herbicidal activity ([6]; application rate 320 g/ha) | Alopecurus myosuroides, herbicidal activity ([8]; application rate 1280 g/ha) | Matricaria inodora, herbicidal activity ([15]; application rate 320 g/ha)
100%: Polygonum convolvulus, herbicidal activity ([1]; application rate 1280 g/ha) | Amaranthus retroflexus, herbicidal activity ([4]; application rate 320 g/ha) | Amaranthus retroflexus, herbicidal activity ([4]; application rate 1280 g/ha) | Setaria viridis, herbicidal activity ([6]; application rate 1280 g/ha) | Viola tricolor, herbicidal activity ([10]; application rate 320 g/ha) | Viola tricolor, herbicidal activity ([10]; application rate 1280 g/ha) | Stellaria media, herbicidal activity ([11]; application rate 320 g/ha) | Stellaria media, herbicidal activity ([11]; application rate 1280 g/ha) | Abutilon theophrasti, herbicidal activity ([12]; application rate 1280 g/ha) | herbicidal activity on Veronica persica (visual rating vs untreated controls) ([13]; application rate 1280 g/ha) | Polygonum convolvulus, herbicidal activity ([14]; application rate 320 g/ha) | Polygonum convolvulus, herbicidal activity ([14]; application rate 1280 g/ha) | Matricaria inodora, herbicidal activity ([15]; application rate 1280 g/ha) | herbicidal activity on Amaranthus retroflexus (visual rating vs untreated controls) ([16]; application rate 320 g/ha) | herbicidal activity on Amaranthus retroflexus (visual rating vs untreated controls) ([16]; application rate 1280 g/ha) | herbicidal activity on Setaria viridis (visual rating vs untreated controls) ([17]; application rate 320 g/ha) | herbicidal activity on Setaria viridis (visual rating vs untreated controls) ([17]; application rate 1280 g/ha) | Ipomoea purpurea, herbicidal activity ([18]; application rate 320 g/ha) | Ipomoea purpurea, herbicidal activity ([18]; application rate 1280 g/ha) | Viola tricolor, herbicidal activity ([21]; application rate 320 g/ha) | Viola tricolor, herbicidal activity ([21]; application rate 1280 g/ha) | Stellaria media, herbicidal activity ([22]; application rate 320 g/ha) | Stellaria media, herbicidal activity ([22]; application rate 1280 g/ha) | herbicidal activity on Abutilon theophrasti (visual rating vs untreated controls) ([23]; application rate 320 g/ha) | herbicidal activity on Abutilon theophrasti (visual rating vs untreated controls) ([23]; application rate 1280 g/ha)

Source: patent US20200079765A1, “SUBSTITUTED HETEROARYL PYRROLONES AND SALTS THEREOF AND USE THEREOF AS HERBICIDAL ACTIVE SUBSTANCES” (Bayer CropScience Aktiengesellschaft, priority 2016, published 2020)
